For one molecule, β-galactosidase activity results are on record in patent publication US7037656B2, “Methods and compositions for identifying ligands for nuclear receptors” (priority 2000, dated 2006).

The target of assay [1] is T1, Aa ΔA/B EcR + Cf ΔA/B USP + GRIP1 (Aedes aegypti, UniProt P49880).
T1 construct: ubiquitin (human, 76 aa) (N, cleaved yes); expressed in transfected cells
Description: Yeast 6x EcRE-lacZ β-galactosidase transactivation assay. Type of assay: cell-based, Aedes aegypti; Choristoneura fumiferana. Particulars: RH 5992 10 μM, 4 hours, DMSO control 0.250. On the procedure:
Briefly, yeast cells are cultured in 5 mL of YPD liquid medium overnight at 30° C. The cell culture was diluted 1:20 in YPD media and further grown until cell density reached an O.D of 0.6. at OD600. The cells were pelleted by centrifugation and washed with 10 mL of TE+0.1M lithium acetate. Cells are then resuspended in 10 mL TE+0.1M lithium acetate and incubated at 30° C. for 1 hour. Cells are collected and resuspended in 0.5 mL of TE+ 0.1M lithium acetate. Aliquots of cells (50 μL), were incubated for 15 minutes at 30° C. with 1–2 μg plasmid DNA in the presence of 5 μg of denatured salmon sperm DNA as DNA carrier. In the case of co-transformation, the indicated plasmids were added simultaneously. […]
Using the transformation method described above, yeast were co-transformed with a reporter gene as shown in FIG. 2 and the expression vector encoding the full-length Aedes aegypti ecdysone receptor, Aa EcR (FIG. 7A) in the presence or absence of the Aa EcR heterodimer partner, Aa USP (a or b form, FIGS. 8A and 8B respectively). […] As the N-terminal portion of the AaEcR receptor is reported to play a role in ligand independent transactivation, an expression vector containing an N-terminal deletion in the Aa EcR was constructed (see FIG. 7B) and assessed in the β-galactosidase assays described above. […]

Assay [2] deals with T2, Cf ΔA/B EcR + Cf ΔA/B USP + GRIP1 (Choristoneura fumiferana, UniProt O77240).
T2 construct: human ubiquitin (76 aa) (N, cleaved yes); expressed in transfected cells; host or cells: yeast (Saccharomyces cerevisiae)
Described as above. It counts as cell-based. Particulars: RH 5992 10 μM, 4 hours, DMSO control 0.200. On the procedure:
Briefly, yeast cells are cultured in 5 mL of YPD liquid medium overnight at 30° C. The cell culture was diluted 1:20 in YPD media and further grown until cell density reached an O.D of 0.6. at OD600. The cells were pelleted by centrifugation and washed with 10 mL of TE+0.1M lithium acetate. Cells are then resuspended in 10 mL TE+0.1M lithium acetate and incubated at 30° C. for 1 hour. Cells are collected and resuspended in 0.5 mL of TE+ 0.1M lithium acetate. Aliquots of cells (50 μL), were incubated for 15 minutes at 30° C. with 1–2 μg plasmid DNA in the presence of 5 μg of denatured salmon sperm DNA as DNA carrier. In the case of co-transformation, the indicated plasmids were added simultaneously. 50% polyethyleneglycol of molecular weight 4000, diluted in TE, was added to a final concentration of 35%. DMSO was added to the transformation solution simultaneously to a final concentration 3%. The samples were mixed well by vortexing and incubated for an additional 30 minutes at 30° C. The cell mixture is then heated for 15 minutes at 42° C. Cells were then collected and plated onto appropriate yeast selective media. Transformants of 4 plasmids are selected on the complete media without tryptophan, uracil, leucine and histidine.
The yeast cells grown overnight in selective liquid media at 30° C. were diluted in prewarmed liquid selective media to 0.1 at OD600 (ODculture). […]

“And” between values parts separate entries of the source, which are not always exact repeats. Equal values may be shown once.

T2 sequence (O77240 entry or part of it, stated change not applied): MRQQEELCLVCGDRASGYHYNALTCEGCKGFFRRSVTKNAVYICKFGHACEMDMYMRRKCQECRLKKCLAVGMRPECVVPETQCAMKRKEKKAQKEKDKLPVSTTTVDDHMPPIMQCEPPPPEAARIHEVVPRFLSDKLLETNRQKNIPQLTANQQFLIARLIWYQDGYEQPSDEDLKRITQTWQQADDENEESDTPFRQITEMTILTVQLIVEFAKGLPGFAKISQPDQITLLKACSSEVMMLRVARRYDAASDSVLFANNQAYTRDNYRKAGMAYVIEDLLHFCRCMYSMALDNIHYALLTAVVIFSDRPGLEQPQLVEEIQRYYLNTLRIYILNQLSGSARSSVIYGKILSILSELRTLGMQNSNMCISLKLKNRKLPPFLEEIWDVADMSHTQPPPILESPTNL
T2 sequence (O76202 with tags, fused parts or gaps partner): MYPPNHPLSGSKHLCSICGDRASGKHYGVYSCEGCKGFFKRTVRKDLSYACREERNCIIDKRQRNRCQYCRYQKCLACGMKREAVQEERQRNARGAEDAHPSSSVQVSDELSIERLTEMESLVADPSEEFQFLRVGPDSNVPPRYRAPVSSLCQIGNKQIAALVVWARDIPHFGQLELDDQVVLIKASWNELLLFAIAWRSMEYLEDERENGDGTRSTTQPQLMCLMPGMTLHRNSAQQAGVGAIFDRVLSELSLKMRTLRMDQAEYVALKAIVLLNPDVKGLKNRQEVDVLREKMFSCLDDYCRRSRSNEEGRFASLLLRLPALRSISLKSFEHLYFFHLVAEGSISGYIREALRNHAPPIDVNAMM
T1 sequence (P49880 with tags, fused parts or gaps): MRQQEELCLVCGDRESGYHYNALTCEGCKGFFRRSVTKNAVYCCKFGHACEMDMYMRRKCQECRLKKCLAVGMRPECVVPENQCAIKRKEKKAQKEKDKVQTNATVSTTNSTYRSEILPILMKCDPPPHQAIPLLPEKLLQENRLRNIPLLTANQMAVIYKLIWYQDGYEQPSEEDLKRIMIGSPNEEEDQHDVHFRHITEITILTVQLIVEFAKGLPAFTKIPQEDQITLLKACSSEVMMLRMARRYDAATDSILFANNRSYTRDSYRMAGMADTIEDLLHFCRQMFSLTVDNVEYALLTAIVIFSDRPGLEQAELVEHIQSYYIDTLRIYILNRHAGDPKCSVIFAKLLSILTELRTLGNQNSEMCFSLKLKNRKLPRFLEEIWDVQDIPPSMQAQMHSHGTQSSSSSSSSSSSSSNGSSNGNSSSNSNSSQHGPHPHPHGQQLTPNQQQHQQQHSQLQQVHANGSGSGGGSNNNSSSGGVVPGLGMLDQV
T1 sequence (O76202 with tags, fused parts or gaps partner): as the sequence (O76202 with tags, fused parts or gaps partner) above

On to `CCc1ccc(C(=O)NN(C(=O)c2cc(C)cc(C)c2)C(C)(C)C)cc1` [RH 5992, tebufenozide], for which the β-galactosidase activity was 3.000 in assay [1]; 2.500 and 3.000 in assay [2].
